{"source": "patent US20050239844A1", "about": "“Composition fo preventing secretion of immunoglobulin e-dependent histamine releasing factor” (KYUNG-LIM LEE, priority 2002, published 2005)", "type_in_all_cases": "in vivo", "key": {"BALBc male mice [1]": {"tested_on": "BALBc male mice", "assay": "Ovalbumin-induced allergic rhinitis: eosinophil number in nasal mucosa (histology)", "conditions": "under mucosa of anterior inferior turbinate, 400× magnification", "experimental": "3-week-old BALBc male mice weighing 15-25 g were divided into four groups each comprising 6 or 7 animals, and then bred in a specific pathogen-free (SPF) environment for 35 days. In order to induce allergic rhinitis, 10 μg of ovalbumin (grade V, Sigma Chemical Co., Phillipsberg, N.Y.) and 1 mg of aluminum hydroxide (Al(OH)3) gel were mixed with 0.3 ml phosphate buffered saline for at least 30 minutes to prepare an ovalbumin mixture. 0.1 ml of the mixture was injected into the abdominal cavity of the mice, and each at 5, 14 and 21 days later, injected once more into the abdominal cavity. At one week after the final injection into the abdominal cavity (28 days later), 30 μl phosphate buffered saline or a mixture of 100 μg ovalbumin with 30 μl phosphate buffered saline was administered into the nasal cavity using a micropipette. […] The administration of ovalalbumin into the nasal cavity and the pretreatment with the drugs before this administration were performed for 7 days, one time a day, and the next day after the administration for 7 days, the mice of all the groups was euthanized by inhalation with carbonic acid gas. […] The measured results were statistically analyzed by the Mann-Whitney U-test, using SPSS for Windows version 10 (SPSS Inc., Chicago), and were determined to be statistically significant at p<0.05."}, "SD mice": {"tested_on": "SD mice", "assay": "Anaphylaxis reaction caused by C48/80: mortality", "conditions": "pantoprazole 10 mg/kg tail vein 30 minutes before C48/80 10 mg/kg tail vein; survival for one hour", "experimental": "SD mice weighing 200-220 g were divided into three groups consisting of a negative control group, a positive control group and a test group, each group consisting of eight animals.\n30 minutes after this pretreatment, the negative control group was injected with a phosphate buffer saline through the tail vein, the positive control group and the test group were injected with 10 mg/kg of C48/80 through the tail vein. After the injection, the number of individuals died of anaphylaxis reaction caused by C48/80 was observed. The standard of death and survival was determined by whether or not the animals survive for one hour after C48/80 administration."}, "BALBc male mice [2]": {"tested_on": "BALBc male mice", "assay": "Ovalbumin-induced allergic rhinitis: symptom score", "conditions": "7 days, sneezing and nose scratching counted for 15 minutes", "experimental": "3-week-old BALBc male mice weighing 15-25 g were divided into four groups each comprising 6 or 7 animals, and then bred in a specific pathogen-free (SPF) environment for 35 days. In order to induce allergic rhinitis, 10 μg of ovalbumin (grade V, Sigma Chemical Co., Phillipsberg, N.Y.) and 1 mg of aluminum hydroxide (Al(OH)3) gel were mixed with 0.3 ml phosphate buffered saline for at least 30 minutes to prepare an ovalbumin mixture. 0.1 ml of the mixture was injected into the abdominal cavity of the mice, and each at 5, 14 and 21 days later, injected once more into the abdominal cavity. At one week after the final injection into the abdominal cavity (28 days later), 30 μl phosphate buffered saline or a mixture of 100 μg ovalbumin with 30 μl phosphate buffered saline was administered into the nasal cavity using a micropipette. […] Then, in each mouse, the number of expression of characteristic symptoms of allergic rhinitis, i.e., the number of expression of symptoms, such as sneezing and the action of scratching the nose, was measured for 15 minutes after a given period, and their sum was recorded as a symptom score. The symptom score was recorded as the mean of scores measured by two observers, and scores having at least 30% difference between the two observers were excluded."}}}
{"smiles": "COc1ccnc(C[S+]([O-])c2nc3ccc(OC(F)F)cc3[nH]2)c1OC", "note": "(centres unmarked) [Inventive composition, pantoprazole]", "values": [{"measurement": "eosinophil number (row printed as Symptom score), Mean", "setting": "BALBc male mice [1]; pantoprazole 10 mg/kg", "result": 5.57}, {"measurement": "eosinophil number (row printed as Symptom score), Mean", "setting": "BALBc male mice [1]; pantoprazole 100 mg/kg", "result": 4.29}, {"measurement": "Mortality (number of dead individuals/number of total individuals)", "setting": "SD mice", "result": "4/8"}, {"measurement": "Symptom score, Mean", "setting": "BALBc male mice [2]; pantoprazole 10 mg/kg into abdominal cavity 30 minutes before nasal ovalbumin", "result": 27.29}, {"measurement": "Symptom score, Mean", "setting": "BALBc male mice [2]; pantoprazole 100 mg/kg into abdominal cavity 30 minutes before nasal ovalbumin", "result": 48.00}]}
